Drawing on ChEMBL document CHEMBL5584320, “Pemuchiamides A and B, Proline-Rich Linear Lipopeptides, Isolated from a Marine Hormoscilla sp. Cyanobacterium” (J Nat Prod, 2024), this text covers IC50 for four compounds.

The subject of assay [1] is Trypanosoma brucei rhodesiense. Briefly: Antitrypanosomal activity against blood stream form of Trypanosoma brucei rhodesiense IL-1501 assessed as growth inhibition incubated for 69 hrs by alamar blue staining based microplate fluorescence scanner analysis. It is filed as functional, organism-based. Conditions: IL-1501, 69 h.
In a further assay the test system is HeLa. Briefly: Growth inhibition of human HeLa cells assessed as reduction cell viability incubated for 72 hrs by MTT assay. It is filed as functional, cell-based. A general note: Formazan colour is commonly taken as a measure of viable cells.
The subject of the next assay is HL-60. Briefly: Growth inhibition of human HL-60 cells assessed as reduction cell viability incubated for 72 hrs by MTT assay. It is filed as functional, cell-based. Conditions: HL-60, 72 h.

Take `N=C(N)c1ccc(OCCCCCOc2ccc(C(=N)N)cc2)cc1` [PENTAMIDINE]: the half-maximal inhibitory concentration (IC50) (commonly the midpoint of a concentration-inhibition curve) in assay [1] amounted to 4 nM.

On to `CC[C@H](C)[C@H](NC(=O)[C@@H]1CCCN1C(=O)[C@@H](CC(C)C)NC(=O)[C@H]1CSC([C@@H]2CCCN2C(=O)[C@@H]2CCCN2C(=O)[C@@H](Cc2ccccc2)N(C)C(=O)CNC(=O)[C@@H](NC(=O)CCCNC(=O)CCCc2ccc(O)cc2)C(C)C)=N1)C(=O)N[C@H](Cc1ccccc1)C(=O)N1CCC[C@H]1C(=O)OC`, for which the IC50 is 2900 nM in the assay with HeLa, 1400 nM in the assay on HL-60 and 630 nM in assay [1].

For the compound `CC[C@H](C)[C@H](NC(=O)[C@@H]1CCCN1C(=O)[C@@H](CC(C)C)NC(=O)[C@H]1CSC([C@@H]2CCCN2C(=O)[C@@H]2CCCN2C(=O)[C@@H](Cc2ccccc2)N(C)C(=O)CNC(=O)[C@@H](NC(=O)C[C@H](O)CNC(=O)CCCc2ccc(O)cc2)C(C)C)=N1)C(=O)N[C@H](Cc1ccccc1)C(=O)N1CCC[C@H]1C(=O)OC`, the IC50 in the assay with HeLa turned out to be 3900 nM; in the assay on HL-60 it was 2100 nM; in assay [1], 5400 nM.

Turning to `COc1cccc2c1C(=O)c1c(O)c3c(c(O)c1C2=O)C[C@@](O)(C(=O)CO)C[C@@H]3O[C@H]1C[C@H](N)[C@H](O)[C@H](C)O1` [DOXORUBICIN], the half-inhibitory concentration (IC50) in the assay on HeLa is 290 nM; in the assay with HL-60, 11 nM.
